Results published in PubChem BioAssay (NCI).
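Tested at 5 concentrations; 48 h exposure; 96-well plates; endpoints linearly interpolated, else capped at highest concentration. Abbreviation: GI50, concentration required for 50% inhibition of growth. At the TGI there is no net growth.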 Where a SMILES comes first, the peptide text is derived from it. [ ]: non-standard residue; d: D form. The star is where a group is joined. ξ: configuration not given here. ξPhe(4-NO2) = NC(Cc1ccc([N+](=O)[O-])cc1)C(=O)O; Boc = CC(C)(C)OC(=O)*

How the values were obtained:
Experiment in all cases: growth of human tumour cells (NCI), 48 h
CCRF-CEM leukemia = test system: CCRF-CEM leukemia
COLO 205 colon = test system: COLO 205 colon
HCT-15 colon = test system: HCT-15 colon
HS 578T breast = test system: HS 578T breast
MALME-3M melanoma = test system: MALME-3M melanoma
MDA-MB-435 = test system: MDA-MB-435
MOLT-4 leukemia = test system: MOLT-4 leukemia
PC-3 prostate = test system: PC-3 prostate
RPMI-8226 leukemia = test system: RPMI-8226 leukemia
SF-268 CNS = test system: SF-268 CNS
SK-MEL-5 melanoma = test system: SK-MEL-5 melanoma
SNB-75 CNS = test system: SNB-75 CNS
T-47D breast = test system: T-47D breast

Row | Structure (SMILES) | TGI (CCRF-CEM leukemia) | TGI (COLO 205 colon) | TGI (HCT-15 colon) | TGI (HS 578T breast) | TGI (MALME-3M melanoma) | TGI (MDA-MB-435) | TGI (MOLT-4 leukemia) | TGI (PC-3 prostate) | TGI (RPMI-8226 leukemia) | TGI (SF-268 CNS) | TGI (SK-MEL-5 melanoma) | TGI (SNB-75 CNS) | TGI (T-47D breast) | GI50 (COLO 205 colon) | GI50 (RPMI-8226 leukemia) | GI50 (T-47D breast)
1 | CCOC(OCC)[C@H](N)[C@@H](O)[C@@H](O)[C@H]1COC(C)(C)O1 | > 100 µM | > 100 µM | > 100 µM | > 100 µM | > 100 µM | > 100 µM | > 100 µM | > 100 µM | > 100 µM | > 100 µM | > 100 µM | > 100 µM | – | – | – | –
2 | Nc1nc(Cc2ccccc2)nc(Cc2ccccc2)c1-c1ccccc1 | – | – | 84.3 µM | > 100 µM | 50.2 µM | 59.3 µM | 59.7 µM | 77.7 µM | – | 85.9 µM | 29.2 µM | – | > 100 µM | – | – | –
3 | C=C(C1=CC(=O)C(C)(C)O1)[C@@H]1CC=C([C@@H]2CC[C@H]3[C@@]2(C)CC[C@H]2C(C)(C)C(=O)[C@H](OC(=O)CC(C)(O)CC(=O)O)C[C@]32C)[C@H](O)O1 (stereo partly specified) | 6.12 µM | 24.5 µM | 24.9 µM | 66.7 µM | 28 µM | 34.2 µM | 30.8 µM | 30.2 µM | 5.24 µM | 24.4 µM | 24.4 µM | – | – | – | – | –
4 | CCOC(=O)/C=C(/C(=O)OCC)n1ccc(=O)n(CC(=O)OCC)c1=O | – | 1.63 µM | 1.84 µM | 26.4 µM | 1.71 µM | 3.64 µM | – | 3.22 µM | 4.35 µM | 10.9 µM | 6.21 µM | 7.92 µM | 2.55 µM | 0.361 µM | 1.77 µM | –
5 | CO/N=C(\C(=O)[N-][n+]1cnn(CC(=O)O)c1)c1csc(N)n1 | > 10 µM | > 10 µM | > 10 µM | – | – | – | > 10 µM | – | > 10 µM | > 10 µM | > 10 µM | > 10 µM | > 10 µM | – | – | –
6 | O=C1CN(c2ccccc2)C(=O)CN1CCN1CC(=O)N(c2ccccc2)CC1=O | – | > 100 µM | > 100 µM | > 100 µM | > 100 µM | > 100 µM | – | > 100 µM | > 100 µM | > 100 µM | > 100 µM | > 100 µM | – | – | – | –
7 | CN(C(=O)c1ccc(Cl)cc1)C(=S)N1CCN(c2ccccc2)CC1 | > 100 µM | > 100 µM | > 100 µM | 95.6 µM | > 100 µM | > 100 µM | > 100 µM | – | > 100 µM | > 100 µM | > 100 µM | > 100 µM | > 100 µM | – | – | –
8 | CC1=CC(=O)/C(=C/N2C(=O)CNC2=S)C(=O)O1 | – | > 100 µM | > 100 µM | – | – | > 100 µM | > 100 µM | > 100 µM | – | – | > 100 µM | > 100 µM | > 100 µM | – | – | –
9 | CCCCSC1=N/C(=C\c2ccc(N(C)C)cc2)C(Cl)=N1 | – | > 100 µM | > 100 µM | > 100 µM | > 100 µM | > 100 µM | > 100 µM | > 100 µM | > 100 µM | > 100 µM | – | > 100 µM | > 100 µM | – | – | –
10 | CC(C)(C)OC(=O)N1CCC(NC(=O)NC2CCN(C(=O)OC(C)(C)C)CC2)CC1 | > 100 µM | – | > 100 µM | > 100 µM | > 100 µM | > 100 µM | – | > 100 µM | > 100 µM | > 100 µM | – | > 100 µM | – | – | – | –
11 | NS(=O)(=O)c1nnc(NC(=O)/C=C/C(=O)O)s1 | – | > 100 µM | > 100 µM | > 100 µM | > 100 µM | > 100 µM | > 100 µM | – | > 100 µM | > 100 µM | > 100 µM | – | > 100 µM | – | – | –
12 | CC1(C)/C(=N\Nc2ccc([N+](=O)[O-])cc2[N+](=O)[O-])C2CCC1C2 (stereo unspecified) | – | > 100 µM | > 100 µM | 98.6 µM | > 100 µM | > 100 µM | > 100 µM | > 100 µM | > 100 µM | > 100 µM | > 100 µM | 65.8 µM | > 100 µM | – | – | –
13 | COc1ccc(NC(=S)Nc2c(C)n(C)n(-c3ccccc3)c2=O)cc1 | > 100 µM | > 100 µM | > 100 µM | > 100 µM | > 100 µM | > 100 µM | > 100 µM | > 100 µM | > 100 µM | > 100 µM | > 100 µM | > 100 µM | – | – | – | –
14 | O=c1oc2ccccc2n1CCCn1c(=O)oc2ccccc21 | > 100 µM | > 100 µM | > 100 µM | > 100 µM | > 100 µM | > 100 µM | > 100 µM | > 100 µM | > 100 µM | > 100 µM | > 100 µM | > 100 µM | – | – | – | –
15 | COc1ccc(S(=O)(=O)Nc2ccc(-c3csc(N4C(=O)/C(=C/c5cccs5)N=C4c4ccccc4)n3)cc2)cc1Cl | – | > 100 µM | 70.6 µM | 93.3 µM | 90.5 µM | > 100 µM | > 100 µM | > 100 µM | – | > 100 µM | > 100 µM | > 100 µM | 85 µM | – | – | –
16 | COc1ccc(/C=C2/SC(c3c(O)ccc4ccccc34)N(NC(=O)CCCCCCCCC(=O)NN3C(=O)/C(=C\c4ccc(OC)c(OC)c4)SC3c3c(O)ccc4ccccc34)C2=O)cc1OC (stereo unspecified) | – | > 29.9 µM | > 100 µM | – | 51.4 µM | > 100 µM | 2.9 µM | > 100 µM | – | > 100 µM | 2.29 µM | > 100 µM | 48.9 µM | – | – | –
17 | COc1ccc2c(c1)C=C(C(C)(C)C)NS2(=O)=O | > 100 µM | > 100 µM | > 100 µM | – | > 100 µM | – | > 100 µM | – | – | > 100 µM | > 100 µM | > 100 µM | – | – | – | –
18 | COc1cc2c3cc1Oc1c(OC)c(OC)cc4c1C(Cc1ccc(O)c(c1)-c1cc(ccc1OC)CC3N(C)CC2)N(C)CC4 (stereo unspecified) | – | > 100 µM | 25.4 µM | 59.1 µM | 41.4 µM | 61.5 µM | 74.2 µM | > 100 µM | – | 72.3 µM | 40.5 µM | 39.6 µM | 68.9 µM | – | – | –
19 | CCCCN1CCC(O)(c2cc(C(=O)O)[nH]c2-c2cc(C)no2)C1=O (stereo unspecified) | – | > 100 µM | > 100 µM | > 100 µM | > 100 µM | > 100 µM | > 100 µM | > 100 µM | > 100 µM | > 100 µM | > 100 µM | > 100 µM | – | – | – | –
20 | NC(Cc1ccc(O)cn1)C(=O)O (stereo unspecified) | – | > 100 µM | > 100 µM | > 100 µM | > 100 µM | > 100 µM | > 100 µM | > 100 µM | > 100 µM | > 100 µM | > 100 µM | > 100 µM | – | – | – | –
21 | CN(C)c1c(C2CC(O)C(CO)O2)c(=O)c1=O (stereo unspecified) | – | – | > 100 µM | > 100 µM | – | > 100 µM | > 100 µM | > 100 µM | > 100 µM | > 100 µM | – | > 100 µM | > 100 µM | – | – | –
22 | CCNC(=O)CNC(=O)C(Cc1ccc([N+](=O)[O-])cc1)NC(=O)OC(C)(C)C (stereo unspecified) (Boc-[ξPhe(4-NO2)]-Gly-NHEt) | > 100 µM | > 100 µM | > 100 µM | > 100 µM | > 100 µM | > 100 µM | > 100 µM | > 100 µM | > 100 µM | > 100 µM | > 100 µM | > 100 µM | – | – | – | –
23 | O=C(NNC(=O)c1c(Cl)c(Cl)c(Cl)c(Cl)c1-c1nc2ccccc2[nH]1)c1ccc(Cl)cc1 | 67.9 µM | > 100 µM | > 100 µM | – | > 100 µM | 69.8 µM | > 100 µM | > 100 µM | 98.5 µM | > 100 µM | > 100 µM | > 100 µM | 93.5 µM | – | – | –
24 | C=CCN(c1cc(OC)c2c(c1[N+](=O)[O-])C(C)(SC)C(=O)N2)S(C)(=O)=O (stereo unspecified) | – | > 100 µM | > 100 µM | > 100 µM | > 100 µM | > 100 µM | – | > 100 µM | > 100 µM | > 100 µM | > 100 µM | > 100 µM | > 100 µM | – | – | –
25 | S=C(S)N1CCN(c2ccccc2)CC1 | – | > 100 µM | > 100 µM | > 100 µM | > 100 µM | > 100 µM | – | > 100 µM | 77.3 µM | > 100 µM | > 100 µM | > 100 µM | > 100 µM | – | – | –
26 | Cc1ccc(N2C3=C(CC4=C2CC(C)(C)CC4=O)C(=O)CC(C)(C)C3)cc1 | > 100 µM | > 100 µM | > 100 µM | > 100 µM | > 100 µM | > 100 µM | > 100 µM | > 100 µM | > 100 µM | > 100 µM | > 100 µM | 82.6 µM | – | – | – | –
27 | Cc1c(C#N)c(N)n(C2OC(CO)C(O)C(O)C2O)c(=S)c1C#N (stereo unspecified) | > 100 µM | – | > 100 µM | > 100 µM | > 100 µM | – | > 100 µM | > 100 µM | > 100 µM | > 100 µM | > 100 µM | > 100 µM | > 100 µM | – | – | > 100 µM
28 | CC(c1ccccc1)C(O)S(=O)(=O)O (stereo unspecified) | > 100 µM | > 100 µM | > 100 µM | – | > 100 µM | – | > 100 µM | – | > 100 µM | > 100 µM | – | > 100 µM | – | – | – | –
29 | C[C@]12CC/C(=N\O)C=C1CC[C@@H]1[C@@H]2CC[C@]2(C)C(=N/O)/C(=C/c3ccncc3)C[C@@H]12 | – | > 100 µM | > 100 µM | > 100 µM | > 100 µM | 95.8 µM | > 100 µM | 62.6 µM | 42.7 µM | > 100 µM | 23 µM | > 100 µM | 88.5 µM | – | – | –
